Structures can show the parent of a compound that is named as a salt.
Tested on: iPSC-CMs, iPSC-ECs and HUVECs phenotypes
Assay: ToxPi 2.0 integration of POD values and physicochemical descriptors
Parameters: species or system human
Conditions: ToxPi-scaled (0-1) score; for huvec.cyto.24hr / huvec.mito.24hr / huvec.mitoint.24hr / huvec.nma.24hr / huvec.tc.24hr / huvec.mtl.18hr / huvec.tlps.18hr / huvec.tta.18hr / huvec.ttl.18hr: HUVECs; for huvec.mtl.18hr / huvec.tlps.18hr / huvec.tta.18hr / huvec.ttl.18hr / endo.mtl.18hr / endo.tlps.18hr / endo.tta.18hr / endo.ttl.18hr: tube formation; for cm.amp.avg.90min / cm.amp.cv.90min / cm.bpm.90min / cm.cam.90min / cm.decay.rise.90min / cm.mii.90min / cm.mito.90min / cm.spacing.cv.90min / cm.tc.90min / cm.amp.avg.24hrs / cm.amp.cv.24hrs / cm.bpm.24hrs / cm.cam.24hrs / cm.decay.rise.24hrs / cm.mii.24hrs / cm.mito.24hrs / cm.spacing.cv.24hrs / cm.tc.24hrs: iPSC cardiomyocytes; for endo.cyto.24hr / endo.mito.24hr / endo.mitoint.24hr / endo.nma.24hr / endo.tc.24hr / endo.mtl.18hr / endo.tlps.18hr / endo.tta.18hr / endo.ttl.18hr: iPSC endothelial cells
Description: Phenotypic responses were quantitatively assessed using concentration–response modeling as detailed elsewhere ([Sirenko et al. 2017]). Briefly, phenotypic readouts were normalized to vehicle controls and fit to a four-parameter logistic model in R studio software (version 3.1.1; R Development Core Team). Following EPA guidance on dose–response modeling, a cutoff of one standard deviation across means of vehicle control (i.e., 0.5% vol/vol DMSO in cell culture media) wells was applied to determine the point-of-departure (POD) values ([U.S. EPA 2012]). In the absence of a concentration–response, the highest tested concentration (i.e., 100μM ) was assigned as “no observable adverse effect level.” The concentration–response assessment R script, as well as templates for vehicle and concentration–response data, are available as a supplement to Sirenko et al. ([2017]). The ability of physicochemical properties to predict differences in PODs were evaluated by multiregression and mixed-effects modeling using R.
POD values were then integrated using ToxPi 2.0 ([Marvel et al. 2018]) software. In ToxPi, each slice is representative of cell type– and time-point–specific phenotypes. The area of each slice is proportional to the relative value (e.g., bioactivity or physicochemical descriptor value) of the chemical within the data set. ToxPi scores were used to rank PCBs and their metabolites according to their overall bioactivity and to determine variability in total observable biological responses and chemical characteristics for each major metabolite class and chlorination status (mono-, hexa-chlorinated). Additional visualizations such as dumbbell and principal components analysis plots were generated in R Studio (version 1.1.456; R version 3.5.1; R Development Core Team) using the ggplot2 package.

O=S(=O)(O)Oc1cc(Cl)c(-c2cc(Cl)ccc2Cl)cc1Cl [4-PCB 52 sulfate] showed a huvec.cyto.24hr of 0.3025, a huvec.mito.24hr of 0.4046 and a huvec.mitoint.24hr of 0.09717. The huvec.nma.24hr was 0.1382, the huvec.tc.24hr was 0.3025 and the huvec.mtl.18hr was 0.4309. The huvec.tlps.18hr was 0.4338, the huvec.tta.18hr was 0 and the huvec.ttl.18hr was 0. The cm.amp.avg.90min was 0.5595, the cm.amp.cv.90min was 0.2844 and the cm.bpm.90min was 0.3731. For the same compound, the cm.cam.90min was 0.9201, the cm.decay.rise.90min was 0.4741 and the cm.mii.90min was 0.3306. It also gave a cm.mito.90min of 0.9162, a cm.spacing.cv.90min of 0.09545 and a cm.tc.90min of 0.9127. The cm.amp.avg.24hrs was 0, the cm.amp.cv.24hrs was 0.4327 and the cm.bpm.24hrs was 0.3667. The cm.cam.24hrs was 0.3358, the cm.decay.rise.24hrs was 0.4673 and the cm.mii.24hrs was 0.2133. It also gave a cm.mito.24hrs of 0.5368, a cm.spacing.cv.24hrs of 0.207 and a cm.tc.24hrs of 0.5686. The endo.cyto.24hr was 0.1547, the endo.mito.24hr was 0.1547 and the endo.mitoint.24hr was 0. For the same compound, the endo.nma.24hr was 0, the endo.tc.24hr was 0.1212 and the endo.mtl.18hr was 0.2716. It also gave an endo.tlps.18hr of 0.4577, an endo.tta.18hr of 0.2209 and an endo.ttl.18hr of 0.2158.

Clc1cc(Cl)c(-c2cc(Cl)c(Cl)cc2Cl)cc1Cl [PCB 153, 2,2′,4,4′,5,5′-hexachlorobiphenyl] was tested, and the huvec.cyto.24hr was 0.8978, the huvec.mito.24hr was 0.5815 and the huvec.mitoint.24hr was 0.9487. For the same compound, the huvec.nma.24hr was 0.5857, the huvec.tc.24hr was 0.8978 and the huvec.mtl.18hr was 0.3619. It also gave a huvec.tlps.18hr of 0.09107, a huvec.tta.18hr of 0.4811 and a huvec.ttl.18hr of 1. For the same compound, the cm.amp.avg.90min was 0.6441, the cm.amp.cv.90min was 0.2203 and the cm.bpm.90min was 0.7602. The cm.cam.90min was 0.6527, the cm.decay.rise.90min was 0.5479 and the cm.mii.90min was 0. The cm.mito.90min was 0.6603, the cm.spacing.cv.90min was 0.07557 and the cm.tc.90min was 0.6003. It also gave a cm.amp.avg.24hrs of 0, a cm.amp.cv.24hrs of 0.175 and a cm.bpm.24hrs of 0.4569. For the same compound, the cm.cam.24hrs was 0.2888, the cm.decay.rise.24hrs was 0.5277 and the cm.mii.24hrs was 0.2429. For the same compound, the cm.mito.24hrs was 0.486, the cm.spacing.cv.24hrs was 0.2007 and the cm.tc.24hrs was 0.5053. The endo.cyto.24hr was 0.2934, the endo.mito.24hr was 0.2934 and the endo.mitoint.24hr was 1. For the same compound, the endo.nma.24hr was 0.08276, the endo.tc.24hr was 0.1249 and the endo.mtl.18hr was 1. The endo.tlps.18hr was 0.6326, the endo.tta.18hr was 0.297 and the endo.ttl.18hr was 0.4748.

Clc1ccc(Cl)c(-c2c(Cl)ccc(Cl)c2Cl)c1Cl [(-)-PCB 136, 2,2′,3,3′,6,6′-hexachlorobiphenyl] gave a huvec.cyto.24hr of 0.6125, a huvec.mito.24hr of 0.5549 and a huvec.mitoint.24hr of 0.9537. It also gave a huvec.nma.24hr of 0.4969, a huvec.tc.24hr of 0.6125 and a huvec.mtl.18hr of 0.3427. The huvec.tlps.18hr was 0.303, the huvec.tta.18hr was 0.01368 and the huvec.ttl.18hr was 0. The cm.amp.avg.90min was 0.7629, the cm.amp.cv.90min was 0.2327 and the cm.bpm.90min was 0.26. The cm.cam.90min was 0.908, the cm.decay.rise.90min was 0.5565 and the cm.mii.90min was 0.3116. For the same compound, the cm.mito.90min was 0.9077, the cm.spacing.cv.90min was 0.07999 and the cm.tc.90min was 0.9177. For the same compound, the cm.amp.avg.24hrs was 0.7236, the cm.amp.cv.24hrs was 1 and the cm.bpm.24hrs was 0.3802. The cm.cam.24hrs was 0.2824, the cm.decay.rise.24hrs was 0.8976 and the cm.mii.24hrs was 0.3373. It also gave a cm.mito.24hrs of 0.4521, a cm.spacing.cv.24hrs of 0.2002 and a cm.tc.24hrs of 0.472. The endo.cyto.24hr was 0.3713, the endo.mito.24hr was 0.3713 and the endo.mitoint.24hr was 0.4668. For the same compound, the endo.nma.24hr was 0, the endo.tc.24hr was 0.3821 and the endo.mtl.18hr was 0.07274. The endo.tlps.18hr was 0.09334, the endo.tta.18hr was 0.6122 and the endo.ttl.18hr was 0.627.

O=C1C=CC(=O)C(c2ccc(Cl)cc2)=C1 [4-Cl-BQ, 2-(4-Chlorophenyl)benzo-2,5-quinone] showed a huvec.cyto.24hr of 1, a huvec.mito.24hr of 0.8466 and a huvec.mitoint.24hr of 0.9878. It also gave a huvec.nma.24hr of 0.6676, a huvec.tc.24hr of 1 and a huvec.mtl.18hr of 0.9933. For the same compound, the huvec.tlps.18hr was 0.5585, the huvec.tta.18hr was 1 and the huvec.ttl.18hr was 0.8997. For the same compound, the cm.amp.avg.90min was 0.3159, the cm.amp.cv.90min was 0.2492 and the cm.bpm.90min was 0.1564. The cm.cam.90min was 0.4034, the cm.decay.rise.90min was 0.215 and the cm.mii.90min was 0.8851. It also gave a cm.mito.90min of 0.387, a cm.spacing.cv.90min of 0.3114 and a cm.tc.90min of 0. The cm.amp.avg.24hrs was 0.3257, the cm.amp.cv.24hrs was 0.3094 and the cm.bpm.24hrs was 0.6578. The cm.cam.24hrs was 1, the cm.decay.rise.24hrs was 0.8647 and the cm.mii.24hrs was 0.2031. It also gave a cm.mito.24hrs of 0.702, a cm.spacing.cv.24hrs of 0.7459 and a cm.tc.24hrs of 0. The endo.cyto.24hr was 0.5702, the endo.mito.24hr was 0.5702 and the endo.mitoint.24hr was 0.2683. For the same compound, the endo.nma.24hr was 0.3599, the endo.tc.24hr was 0.6463 and the endo.mtl.18hr was 0.5822. For the same compound, the endo.tlps.18hr was 0.7309, the endo.tta.18hr was 0.1339 and the endo.ttl.18hr was 0.1969.

Compound Oc1cc(Cl)cc(-c2cccc(Cl)c2)c1 [5-OH-PCB 11] has a huvec.cyto.24hr of 0.4815, a huvec.mito.24hr of 0.5672 and a huvec.mitoint.24hr of 0.6755. For the same compound, the huvec.nma.24hr was 0.5619, the huvec.tc.24hr was 0.4815 and the huvec.mtl.18hr was 0.5955. For the same compound, the huvec.tlps.18hr was 0, the huvec.tta.18hr was 0 and the huvec.ttl.18hr was 0.1684. The cm.amp.avg.90min was 0.6478, the cm.amp.cv.90min was 0.2678 and the cm.bpm.90min was 0.7407. The cm.cam.90min was 0.7498, the cm.decay.rise.90min was 0.5778 and the cm.mii.90min was 0.4013. For the same compound, the cm.mito.90min was 0.8059, the cm.spacing.cv.90min was 0.07982 and the cm.tc.90min was 0.8069. For the same compound, the cm.amp.avg.24hrs was 0.069, the cm.amp.cv.24hrs was 0.2233 and the cm.bpm.24hrs was 0.1451. For the same compound, the cm.cam.24hrs was 0.2664, the cm.decay.rise.24hrs was 0.2666 and the cm.mii.24hrs was 0.6539. It also gave a cm.mito.24hrs of 0.4142, a cm.spacing.cv.24hrs of 0.2695 and a cm.tc.24hrs of 0.5144. For the same compound, the endo.cyto.24hr was 0.1503, the endo.mito.24hr was 0.1503 and the endo.mitoint.24hr was 0.08226. For the same compound, the endo.nma.24hr was 0.3443, the endo.tc.24hr was 0.1482 and the endo.mtl.18hr was 0.3075. It also gave an endo.tlps.18hr of 0.4586, an endo.tta.18hr of 0.2424 and an endo.ttl.18hr of 0.241.

Reference: PMC7377239, “Cardiovascular Effects of Polychlorinated Biphenyls and Their Major Metabolites” (Environmental Health Perspectives, 2020)
